Publication PMC8161026, “Synthesis and Anticancer Activity Evaluation of 5-[2-Chloro-3-(4-nitrophenyl)-2-propenylidene]-4-thiazolidinones” (Molecules, 2021)

Legend:
[1] = tested on: UACC-62; test: NCI DTP 60 cell line screen, SRB
[2] = tested on: OVCAR-4; test: NCI DTP 60 cell line screen, SRB
[3] = tested on: A498; test: NCI DTP 60 cell line screen, SRB
[4] = tested on: HCT-116; settings: HCT-116 (Colon Cancer), 48 h, SRB
[5] = tested on: SK-MEL-2; test: cells; settings: Homo sapiens, SK-MEL-2, 48 h
[6] = tested on: HS 578T; test: NCI DTP 60 cell line screen, SRB; settings: 48 h
[7] = tested on: NCI-H23; test: cells; settings: Homo sapiens, NCI-H23, 48 h
[8] = tested on: SK-OV-3; test: NCI DTP 60 cell line screen, SRB
[9] = tested on: Colon Cancer subpanel; test: cells
Experimental: (§1) At the first stage of biological activity study, the antitumor activity screening of the selected compounds 2b, 2c, 2f, 2h, and 2j was performed according to the NCI DTP (USA) standard protocol at the concentrations ranging from 10^−4 to 10^−8 M toward 60 tumor cell lines. The percentage of growth was evaluated spectrophotometrically versus controls not treated with test agents after 48 h exposure and using SRB protein assay to estimate cell viability or growth. Dose–response parameters were calculated for each cell line: GI50—molar concentration of the compound that inhibits 50% net cell growth; TGI—molar concentration of the compound leading to the total inhibition; and LC50—molar concentration of the compound leading to 50% net cell death. Furthermore, mean graph midpoints (MG_MID) were calculated for each of the parameters, giving an average activity parameter over all cell lines for the tested compound. For the MG_MID calculation, insensitive cell lines were included with the highest concentration tested.
(§2) The selectivity index (SI) obtained by dividing the full panel MG-MID (mM) of the tested compound by their individual subpanel MG-MID (mM) was considered as a measure of selectivity of anticancer activity (Table 3).
(§3) Primary anticancer assay was performed on a panel of approximately sixty human tumor cell lines derived from nine neoplastic diseases, in accordance with the protocol of the Drug Evaluation Branch, National Cancer Institute, Bethesda. Tested compounds were added to the culture at a single concentration (10^−5 M) and the cultures were incubated for 48 h. End point determinations were made with a protein binding dye, sulforhodamine B (SRB). […] The percentage growth was evaluated spectrophotometrically versus controls not treated with test agents.
(§4) Dose–response parameters (GI50, TGI, LC50) were calculated for each compound. […] The drug concentration resulting in total growth inhibition (TGI) was calculated from Ti = Tz. The LC50 (concentration of drug resulting in a 50% reduction in the measured protein at the end of the drug treatment as compared to that at the beginning) indicating a net loss of cells following treatment was calculated from [(Ti − Tz)/Tz] × 100 = −50 (2). Values were calculated for each of these parameters if the level of activity was reached; however, if the effect was not reached or was excessive, the value for that parameter was expressed as more or less than the maximum or minimum concentration tested.

[10] = tested on: Renal Cancer subpanel; test: cells
Experimental: as §1, §2, §3, §4

[11] = tested on: Non-Small Cell Lung Cancer subpanel; test: cells
Experimental: as §1, §2, §3, §4

[12] = tested on: Melanoma subpanel; test: cells
Experimental: as §1, §2, §3, §4

[13] = tested on: Ovarian Cancer subpanel; test: cells
Experimental: as §1, §2, §3, §4

[14] = tested on: Breast Cancer subpanel; test: cells
Experimental: as §1, §2, §3, §4

[15] = tested on: Leukemia subpanel; test: cells
Experimental: as §1, §2, §3, §4

[16] = tested on: CNS Cancer subpanel; test: cells
Experimental: as §1, §2, §3, §4

[17] = tested on: Prostate Cancer subpanel; test: cells
Experimental: as §1, §2, §3, §4

[18] = tested on: DU-145; settings: DU-145 (Prostate Cancer), 48 h, SRB
[19] = tested on: K-562; test: cells; settings: Homo sapiens, K562, 48 h
[20] = Homo sapiens, read-out: MG_MID, GI50
[21] = Homo sapiens, read-out: MG_MID, LC50
[22] = full panel MG_MID / Colon Cancer subpanel MG_MID
[23] = full panel MG_MID / Renal Cancer subpanel MG_MID
[24] = full panel MG_MID / Non-Small Cell Lung Cancer subpanel MG_MID
[25] = full panel MG_MID / Melanoma subpanel MG_MID
[26] = full panel MG_MID / Ovarian Cancer subpanel MG_MID
[27] = full panel MG_MID / Breast Cancer subpanel MG_MID
[28] = full panel MG_MID / Leukemia subpanel MG_MID
[29] = full panel MG_MID / CNS Cancer subpanel MG_MID
[30] = full panel MG_MID / Prostate Cancer subpanel MG_MID

With `O=C1NC(=S)S/C1=C\C(Cl)=C\c1ccc([N+](=O)[O-])cc1` [Compound 2b, 5-[(Z,2Z)-2-Chloro-3-(4-nitrophenyl)-2-propenylidene]-2-thioxo-4-thiazolidinone] the GI50 ([1]; Homo sapiens, UACC-62, 48 h) was 5.75 µM, the CC50 ([1]; Homo sapiens, UACC-62, 48 h, read-out: LC50) was 27.2 µM and the TGI ([1]; UACC-62 (Melanoma), 48 h, SRB) was 12.5 µM. For the same compound, the GI50 ([2]; Homo sapiens, OVCAR-4, 48 h) was 1.95 µM, the CC50 ([2]; Homo sapiens, OVCAR-4, 48 h, read-out: LC50) was greater than 50 µM and the TGI ([2]; OVCAR-4 (Ovarian Cancer), 48 h, SRB) was 11.7 µM. The TGI ([3]; A498 (Renal Cancer), 48 h, SRB) was 12.2 µM, the GI50 ([3]; Homo sapiens, A498, 48 h) was 4.57 µM and the CC50 ([3]; Homo sapiens, A498, 48 h, read-out: LC50) was 30.9 µM. For the same compound, the TGI [4] was 11.0 µM, the GI50 [5] was 8.07 µM and the CC50 ([5]; read-out: LC50) was greater than 50 µM. It also gave a TGI ([6]; HS 578T (Breast Cancer), SRB) of 12.1 µM, a GI50 ([6]; Homo sapiens, Hs-578T) of 1.42 µM and a CC50 ([6]; Homo sapiens, Hs-578T, read-out: LC50) greater than 50 µM. For the same compound, the GI50 [7] was 3.27 µM, the CC50 ([7]; read-out: LC50) was 45.5 µM and the GI50 ([8]; Homo sapiens, SK-OV-3, 48 h) was 13 µM. The CC50 ([8]; Homo sapiens, SK-OV-3, 48 h, read-out: LC50) was greater than 50 µM, the TGI ([8]; SK-OV-3 (Ovarian Cancer), 48 h, SRB) was greater than 50 µM and the “MG_MID, TGI” value ([9]; Colon Cancer panel mean) was 11.5 µM. The GI50 [9, 20] was 3.27 µM, the CC50 [9, 21] was 35.4 µM and the “SI (selectivity index), GI50” value [9, 22] was 1.46. The “SI (selectivity index), LC50” value [9, 22] was 1.23, the “SI (selectivity index), TGI” value [9, 22] was 1.77 and the GI50 [10, 20] was 6.23 µM. The CC50 [10, 21] was 42.9 µM, the “MG_MID, TGI” value ([10]; Renal Cancer panel mean) was 18.7 µM and the “SI (selectivity index), GI50” value [10, 23] was 0.77. The “SI (selectivity index), LC50” value [10, 23] was 1.01, the “SI (selectivity index), TGI” value [10, 23] was 1.09 and the GI50 [11, 20] was 3.79 µM. The CC50 [11, 21] was 48.6 µM, the “MG_MID, TGI” value ([11]; Non-Small Cell Lung Cancer panel mean) was 29.7 µM and the “SI (selectivity index), GI50” value [11, 24] was 1.26. For the same compound, the “SI (selectivity index), LC50” value [11, 24] was 0.90, the “SI (selectivity index), TGI” value [11, 24] was 0.68 and the GI50 [12, 20] was 5.57 µM. The CC50 [12, 21] was 36.8 µM, the “MG_MID, TGI” value ([12]; Melanoma panel mean) was 16.1 µM and the “SI (selectivity index), GI50” value [12, 25] was 0.86. For the same compound, the “SI (selectivity index), LC50” value [12, 25] was 1.18, the “SI (selectivity index), TGI” value [12, 25] was 1.26 and the GI50 [13, 20] was 6.68 µM. The CC50 [13, 21] was 42.8 µM, the “MG_MID, TGI” value ([13]; Ovarian Cancer panel mean) was 21.0 µM and the “SI (selectivity index), GI50” value [13, 26] was 0.72. The “SI (selectivity index), LC50” value [13, 26] was 1.02, the “SI (selectivity index), TGI” value [13, 26] was 0.97 and the “MG_MID, TGI” value ([14]; Breast Cancer panel mean) was 28.4 µM. The GI50 [14, 20] was 4.38 µM, the CC50 [14, 21] was 46.7 µM and the “SI (selectivity index), GI50” value [14, 27] was 1.09. For the same compound, the “SI (selectivity index), LC50” value [14, 27] was 0.93, the “SI (selectivity index), TGI” value [14, 27] was 0.71 and the GI50 [15, 20] was 1.51 µM. The CC50 [15, 21] was greater than 50 µM, the “MG_MID, TGI” value ([15]; Leukemia panel mean) was 20.2 µM and the “SI (selectivity index), GI50” value [15, 28] was 3.17. For the same compound, the “SI (selectivity index), LC50” value [15, 28] was less than 0.87, the “SI (selectivity index), TGI” value [15, 28] was 1.00 and the “MG_MID, TGI” value ([16]; CNS Cancer panel mean) was 22.4 µM. For the same compound, the GI50 [16, 20] was 6.98 µM, the CC50 [16, 21] was 45.4 µM and the “SI (selectivity index), GI50” value [16, 29] was 0.69. The “SI (selectivity index), LC50” value [16, 29] was 0.96, the “SI (selectivity index), TGI” value [16, 29] was 0.91 and the GI50 [17, 20] was 5.89 µM. For the same compound, the CC50 [17, 21] was 39.2 µM, the “MG_MID, TGI” value ([17]; Prostate Cancer panel mean) was 32.1 µM and the “SI (selectivity index), GI50” value [17, 30] was 0.81. The “SI (selectivity index), LC50” value [17, 30] was 1.11, the “SI (selectivity index), TGI” value [17, 30] was 0.63 and the TGI [18] was 14.2 µM. For the same compound, the GI50 [19] was 1.44 µM and the CC50 ([19]; read-out: LC50) was greater than 50 µM.
